Calls of active or inactive are those of the source. How the calls were made is not given here.
Experiments:
Test in all cases: CXCR6 receptor antagonists, dose response, cell-based, beta-arrestin, DiscoveRx, APJ panel, uHTS hits (AID 624129)
[1] = molecular target: Apelin receptor (Homo sapiens) (UniProt P35414); conditions: CXCR6 beta-arrestin (DiscoveRx) antagonist cell assay, APJ
[2] = molecular target: C-C chemokine receptor type 6 (Homo sapiens) (UniProt P51684); conditions: CXCR6 beta-arrestin (DiscoveRx) antagonist cell assay
[3] = molecular target: C-X-C chemokine receptor type 6 (Homo sapiens) (UniProt O00574); conditions: CXCR6 beta-arrestin (DiscoveRx) antagonist cell assay; for inhibition: CXCR6, run 1, dose range 2, at 80 µM (top of the series)
Chain of C-X-C chemokine receptor type 6 (Homo sapiens) (O00574 whole entry, looked up): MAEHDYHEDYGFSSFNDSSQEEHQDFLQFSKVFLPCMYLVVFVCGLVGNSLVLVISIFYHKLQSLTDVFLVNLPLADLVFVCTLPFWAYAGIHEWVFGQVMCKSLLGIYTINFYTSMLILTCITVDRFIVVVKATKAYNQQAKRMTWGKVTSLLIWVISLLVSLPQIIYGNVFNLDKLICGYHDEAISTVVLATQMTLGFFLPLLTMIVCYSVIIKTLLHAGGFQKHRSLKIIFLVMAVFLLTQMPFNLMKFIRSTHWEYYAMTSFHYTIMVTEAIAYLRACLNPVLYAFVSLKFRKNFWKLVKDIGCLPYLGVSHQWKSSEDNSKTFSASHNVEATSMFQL

[4] = molecular target: Beta-galactosidase (Escherichia coli) (UniProt Q8VNN2); conditions: CXCR6 beta-arrestin (DiscoveRx) antagonist cell assay, b-galactosidase
Chain of Beta-galactosidase (Escherichia coli) (Q8VNN2 whole entry, looked up): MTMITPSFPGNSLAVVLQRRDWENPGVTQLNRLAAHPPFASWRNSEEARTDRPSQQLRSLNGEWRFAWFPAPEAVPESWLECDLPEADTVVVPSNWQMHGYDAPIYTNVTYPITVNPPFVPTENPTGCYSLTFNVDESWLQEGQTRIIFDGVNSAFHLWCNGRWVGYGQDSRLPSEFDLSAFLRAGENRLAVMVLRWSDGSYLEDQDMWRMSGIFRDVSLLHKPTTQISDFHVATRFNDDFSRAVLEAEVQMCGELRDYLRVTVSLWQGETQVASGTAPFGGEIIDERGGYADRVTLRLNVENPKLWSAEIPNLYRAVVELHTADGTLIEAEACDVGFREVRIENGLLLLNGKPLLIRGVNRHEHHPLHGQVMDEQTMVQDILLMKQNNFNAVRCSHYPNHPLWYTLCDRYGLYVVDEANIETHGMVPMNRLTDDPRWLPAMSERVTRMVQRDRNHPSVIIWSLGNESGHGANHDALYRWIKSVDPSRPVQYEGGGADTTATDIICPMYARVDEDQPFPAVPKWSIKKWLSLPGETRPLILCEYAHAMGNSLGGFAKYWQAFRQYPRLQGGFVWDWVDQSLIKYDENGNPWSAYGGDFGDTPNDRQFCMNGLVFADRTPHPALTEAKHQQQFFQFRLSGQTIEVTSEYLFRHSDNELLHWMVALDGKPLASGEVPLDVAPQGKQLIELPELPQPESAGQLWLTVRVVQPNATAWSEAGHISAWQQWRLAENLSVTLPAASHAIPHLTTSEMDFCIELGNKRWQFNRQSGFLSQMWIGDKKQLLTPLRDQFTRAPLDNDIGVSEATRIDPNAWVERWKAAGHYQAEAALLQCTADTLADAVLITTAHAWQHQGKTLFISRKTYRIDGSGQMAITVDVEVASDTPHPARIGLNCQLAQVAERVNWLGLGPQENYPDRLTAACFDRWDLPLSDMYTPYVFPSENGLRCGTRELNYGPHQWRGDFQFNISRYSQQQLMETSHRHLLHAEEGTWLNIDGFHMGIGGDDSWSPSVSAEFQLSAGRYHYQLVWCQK

[5] = dose range 1, mean IC50 across replicates
[6] = CCR6, dose range 1, mean IC50 across replicates
[7] = CXCR6, dose range 1, mean IC50 across replicates

Row | SMILES | IC50 ([1]; dose range 1) | IC50 [1, 5] [µM] | IC50 ([1]; run 2, dose range 1) [µM] | IC50 ([1]; run 3, dose range 1) [µM] | IC50 ([2]; CCR6, dose range 1) | IC50 [2, 6] [µM] | IC50 ([2]; CCR6, run 2, dose range 1) [µM] | IC50 ([3]; CXCR6, dose range 1) | IC50 [3, 7] [µM] | inhibition [3] [%] | IC50 ([3]; CXCR6, run 2, dose range 1) [µM] | IC50 ([4]; dose range 1) | IC50 [4, 5] [µM] | IC50 ([3]; CXCR6, run 1, dose range 2) [µM] | IC50 ([3]; CXCR6, run 2, dose range 2) [µM]
1 | Cn1c(=O)c([N+](=O)[O-])c(Cl)c2ccccc21 | 16.4 µM | 29.4 | 42.5 | > 80 | 16.2 µM | 21.7 | 27.1 | inactive | 22.2 | 116 | > 80 | > 80 µM (inactive) | > 80 | – | –
2 | C/C(=N\NC(=O)c1cc(-c2cccs2)nc2ccccc12)c1ccccn1 | 2.79 µM | 7.52 | 15.3 | 4.43 | 2.42 µM | 3.22 | 4.01 | 4.85 µM | 4.74 | – | 6.67 | > 80 µM (inactive) | > 80 | 2.69 | > 79
3 | Cc1cc(Cl)n2c(nc3cc(F)c(F)cc32)c1C#N | – | > 80 | > 80 | > 80 | 7.09 µM | 9.8 | 12.5 | inactive | 24.8 | – | 53 | > 80 µM (inactive) | > 80 | 6.21 | 6.06
4 | O=[N+]([O-])c1c(Nc2ccccc2O)cc(Cl)c2nonc12 | 20 µM | 23.2 | 24.4 | 25.2 | 11.8 µM | 12.6 | 13.4 | inactive | 13 | 123 | 9.03 | > 80 µM (inactive) | > 80 | – | –
5 | Cc1c(CCCl)c(Cl)n2c(nc3ccccc32)c1C#N | > 80 µM (inactive) | > 80 | > 80 | > 80 | inactive | 41.5 | 51.1 | – | 6.38 | – | > 80 | > 80 µM (inactive) | > 80 | 5.75 | 7.02
6 | COC(=O)c1ccc2c(c1)C(C)(C)C(/C=C/c1ccccc1O)=[N+]2C | 16.2 µM | 15.9 | 14.1 | 17.3 | 10.3 µM | 11.3 | 12.3 | inactive | 11.7 | – | 13.5 | 24.2 µM | 24.2 | 8.94 | 9.88
7 | COc1ccc(C[C@@H]2OC3(C=CC(=O)C=C3)O[C@H]2Cc2ccc(OC)cc2)cc1 | 8.04 µM | 7.02 | 6.89 | 6.14 | 3.92 µM | 3.98 | 4.05 | 5.57 µM | 5.59 | – | 4.23 | > 80 µM (inactive) | > 80 | 5.41 | 7.14
8 | CCOC(=O)c1c(SCCN2CCCC2)n(-c2ccccc2)c(=S)n(-c2ccccc2)c1=O | – | > 80 | > 80 | > 80 | – | > 80 | > 80 | > 80 µM (inactive) | > 80 | -8.52 | > 80 | > 80 µM (inactive) | > 80 | – | –
9 | O=C(Nc1ccccc1Cl)/C(Cl)=C(\Cl)S(=O)c1ccccc1 (stereo unspecified) | 12.7 µM | 11.7 | 11.9 | 10.5 | 8.58 µM | 8.32 | 8.05 | 9.69 µM | 9.93 | – | 10.4 | > 80 µM (inactive) | > 80 | 9.44 | 10.2
10 | Cc1cccc(C(=O)Nc2ccc(C(=O)/C=C/c3ccncc3)cc2)c1 | – | > 80 | > 80 | > 80 | – | > 80 | > 80 | > 80 µM (inactive) | > 80 | -26.4 | > 80 | > 80 µM (inactive) | > 80 | – | –
11 | Cc1ccccc1Oc1cc(-n2ncc(Cl)c(Cl)c2=O)ncn1 | 3.31 µM | 4.62 | 5.92 | > 80 | 1.27 µM | 1.51 | 1.75 | 1.57 µM | 1.48 | 105 | 1.38 | > 80 µM (inactive) | > 80 | – | –
12 | Oc1cccc2ccc(/C=C/c3c(F)cccc3Cl)nc12 | 6.69 µM | 15.4 | 11.2 | 28.2 | 5.94 µM | 5.8 | 5.66 | 6.4 µM | 5.43 | – | 6.67 | > 80 µM (inactive) | > 80 | 3.78 | 4.85
13 | O=C(Nc1nnc(-c2cccs2)o1)c1cccc(C(F)(F)F)c1 | – | > 80 | > 80 | > 80 | – | > 80 | > 80 | > 80 µM (inactive) | > 80 | -55.9 | > 80 | > 80 µM (inactive) | > 80 | – | –
14 | C=C1CC(COc2ccc3c(C)c(Cl)c(=O)oc3c2)(c2ccccc2)OC1=O (stereo unspecified) | > 80 µM (inactive) | 35.3 | 54.2 | 16.4 | 0.174 µM | 1.42 | 2.66 | 3.92 µM | 3.92 | 55.2 | > 80 | > 80 µM (inactive) | > 80 | – | –
15 | Cc1ccc(/C=N/NC(=S)N2CCOCC2)cc1 | 4.87 µM | 5.15 | 5.63 | 4.93 | 3.58 µM | 4.25 | 4.93 | 4.96 µM | 3.83 | – | 4.53 | > 80 µM (inactive) | > 80 | 3.14 | 2.7
16 | C=C1C(=O)C23CCC4C(C)(C(=O)OC)CCCC4(C)C2CCC1(O)C3 (stereo unspecified) | 9.66 µM | 8.26 | 7.57 | 7.54 | 5.19 µM | 5.45 | 5.72 | 5.72 µM | 6.19 | – | 5.95 | > 80 µM (inactive) | > 80 | 6.35 | 6.77
17 | CS(=O)(=O)c1ccc(C(=O)OCc2nnc(-c3ccccc3)o2)cc1[N+](=O)[O-] | 4.43 µM | 3.86 | 3.23 | 3.93 | 7.32 µM | 8.49 | 9.67 | 3.8 µM | 3.17 | – | 3.64 | > 80 µM (inactive) | > 80 | 3.23 | 2.03
18 | Cc1cnc(C(=O)Nc2cccc3cccnc23)cn1 | – | > 80 | > 80 | > 80 | 28.6 µM | 28.6 | > 80 | inactive | 22.4 | – | > 80 | > 80 µM (inactive) | > 80 | 6.94 | 12
19 | NC(=S)N/N=C/c1ncc(C(F)(F)F)cc1Cl | 6.82 µM | 7.73 | 8.7 | 7.68 | 6 µM | 6.7 | 7.41 | 7.01 µM | 5.44 | – | 6.86 | > 80 µM (inactive) | > 80 | 3.67 | 4.23
20 | O=C(CSc1cccc2cccnc12)N/N=C/c1cccnc1 | 3.95 µM | 4.26 | 4.72 | 4.11 | 4.18 µM | 5.05 | 5.92 | 6.91 µM | 4.34 | – | 4.25 | > 80 µM (inactive) | > 80 | 3.34 | 2.87
21 | O=[N+]([O-])c1ccc(Sc2cccc[n+]2[O-])c2nonc12 | 21.5 µM | 19.7 | 17.5 | 20.1 | 11.5 µM | 11.5 | 11.6 | > 80 µM (inactive) | > 80 | 118 | > 80 | > 80 µM (inactive) | > 80 | – | –
22 | CCCCOc1ccc(C(=O)NNC(=S)NC(=O)CC)cc1 | 8.68 µM | 15.4 | 10.6 | 27.1 | 7.58 µM | 8.35 | 9.11 | 7.96 µM | 10.4 | – | 16 | > 80 µM (inactive) | > 80 | 7.49 | 10

From PubChem BioAssay AID624129 (Sanford-Burnham Center for Chemical Genomics, 2012)
